The values below come from patent publication EP3255116A1, “COMPOSITIONS COMPRISING A FLUOROOLEFIN” (The Chemours Company FC, LLC, priority 2005, dated 2006).

A short description of data set [1]: Kinematic viscosity of lactone compatibilizers. The data set is classed as physicochemical. Conditions: at 40°C. Here is the method: Lactone compatibilizers generally have a kinematic viscosity of less than about 7 centistokes at 40°C. […] Lactone compatibilizers may be available commercially or prepared by methods as described in U. S. patent application 10/910,495 filed August 3, 2004, incorporated herein by reference.

A short description of data set [2]: Flammability test ASTM E681-01, lower and upper flammability limit in air (Example 6). The data set is classed as physicochemical. The following applies: 50 percent relative humidity; for LFL: lower flammability limit; for LFL / UFL: ASTM E681-01, 101 kPa (14.7 psia), 100 °C (212 °F); for UFL: upper flammability limit; for flammability: ASTM E681-01, 101 kPa, 100 °C. Here is the method:
Flammable compounds may be identified by testing under ASTM (American Society of Testing and Materials) E681-01, with an electronic ignition source. Such tests of flammability were conducted on HFC-1234yf, HFC-1225ye and a mixture of the present disclosure at 101 (kPa (14.7 psia), 100 °C (212 °F), and 50 percent relative humidity, at various concentrations in air in order to determine the lower flammability limit (LFL) and upper flammability limit (UFL). The results are given in […]. TABLE 14

Compound `CCCCCC[C@H]1C[C@@H](C)OC1=O` (relative stereo) [cis-(3-hexyl-5-methyl)dihydrofuran-2-one] registered a kinematic viscosity in data set [1] of 4.5 centistokes.
For the compound `FC=C(F)C(F)(F)F` [HFC-1225ye (100wt%)], in data set [2], the LFL entry was “Non-flammable” and the UFL result is listed as “Non-flammable”.
Turning to `FC=C(F)C(F)(F)F` [HFC-1225ye, 1,2,3,3,3-pentafluoropropene], the flammability entry in data set [2] is listed as “reduces the flammability”.
As to `C=C(F)C(F)(F)F` [HFC-1234yf (100 wt%)], in data set [2], the LFL is on record as 5.0 vol % in air and the UFL was found to be 14.5 vol % in air.
As for `C=C(F)C(F)(F)F` [HFC-1234yf, 2,3,3;3-tetrafluoropropene], in data set [2], the flammability entry is “flammable”.
